In brackets after ≈: the same amount, converted by molar mass. Read-outs that look alike come from different tables or passages of the source. Bridge positions count the residues as written; N and C are the ends. Peptide text beside a SMILES is read from it.

What all share (type): cell-based
Assay [1] concerns Pseudomonas aeruginosa: ATCC 10148. The procedure:
(§1) Microtiter broth dilution assays. HP2, HP3, and HP5 peptides are comprised of novel sequences that have not yet been described in the AMP literature. A common method for establishing antimicrobial activity of peptides is to perform microtiter broth assays. Microtiter broth dilution methods were implemented for determination of the minimum inhibitory concentration (MIC) and minimum bactericidal concentration (MBC). HP3 and HP5 were tested in addition to Ranatuerin-1/HP4 peptide as a positive control. HP2 could not be tested because multiple peptide synthesis attempts failed. The human cathelicidin, LL-37^30 was used as an additional positive control, and an unrelated similarly sized cationic peptide from the T. pallidum protein Tp0751 was used as a negative control. The potential AMPs were tested against bacteria representative of all three types of known cell envelope (Gram-positive, negative, and the complex and unique mycobacterial cell wall/envelope), given that a major mechanism used by AMPs is cell wall/membrane targeting.
(§2) Microtiter broth dilution assays. To test for antimicrobial activity, HP3, HP4/Ranatuerin-1, and HP5, peptides were synthesized by GenScript (Piscataway, New Jersey, USA). HP2 was not tested because the service provider was unable to synthesize this peptide despite multiple attempts. An unrelated, similarly-sized peptide from the Treponema pallidum protein Tp0751^55 was used as a negative control and the human cathelicidin, LL-37^30, was included as a positive control. Peptides were dissolved in filter-sterilized ultrapure water and tested for sterility by plating on non-selective agar plates followed by a 48 h incubation at 37° C. Two-fold serial dilutions of each peptide were prepared to obtain a series corresponding to ten times the required testing concentrations (2560, 1280, 640, 320, 160, 80, 40, 20, 10, and 5 μg/mL)^29.
(§3) Microtiter broth dilution methods were implemented for determination of the minimum inhibitory concentration (MIC) and minimum bactericidal concentration (MBC) of the four putative AMPs and the negative control peptide using procedures adapted from the R.E.W. Hancock Laboratory for cationic AMPs^29 and the CLSI methods for dilution antimicrobial susceptibility tests^56.
(§4) To assess antimicrobial activity across a diverse range of bacterial species, colonies were cultured overnight on Mueller Hinton agar plates (MHA; +5% sheep blood for S. pyogenes)^56 from frozen glycerol stock. Bacteria tested include Gram-negative rods (Escherichia coli: ATCC 9723H; Pseudomonas aeruginosa: ATCC 10148), Gram-positive cocci (Staphylococcus aureus: ATCC 6538P; Streptococcus pyogenes: unknown strain, hospital isolate), and Mycobacterium smegmatis (MC^2155; classified as neither Gram-positive nor Gram-negative). Bacterial suspensions were prepared by placing 3-5 morphologically similar colonies from the grown plate into sterile glass culture tubes containing 2 mL of Mueller Hinton Broth (MHB; +5% lysed horse blood for S. pyogenes) 56. Microbial inoculums from bacterial suspensions were prepared through a spectrophotometric adjustment of turbidity to 0.08-0.1 at 600 nm to achieve a turbidity equivalent to that of a 0.5 McFarland standard (1-2×10^8 CFU/mL)^29. The standardized bacterial inoculums were then diluted in MHB to obtain final cell densities of approximately […].
(§5) Ninety-six-well microtiter plates (Fisher Cat. No. CS003790; Nepean, Ontario, Canada) were prepared with 100 μL of E. coli, P. aeruginosa, S. aureus, S. pyogenes, or M. smegmatis bacterial suspension (5×10^5 CFU/mL) dispensed into each well of columns 1 through 11. Eleven microliters of the 10×AMP dilution series for all four peptides were added to each well from column 1 (2560 μg/mL) to column 10 (5 μg/mL) in all plates. Column 11 functioned as a positive control for bacterial growth in the absence of AMPs. Column 12 in each plate contained 100 μL of MHB as a sterility control (+5% lysed horse blood for S. pyogenes)^56. […]

The subject of assay [2] is Staphylococcus aureus: ATCC 6538P. The method, then:
as §1, §2, §3, §4, §5

For assay [3], the system named is Streptococcus pyogenes: unknown strain, hospital isolate. The following applies: for inhibitory or bacteriostatic activity: S. pyogenes; for MBC / MIC: unknown strain, hospital isolate. The method, then: as §1, §2, §3, §4, §5
The subject of assay [4] is Escherichia coli: ATCC 9723H. The method, then: as §1, §2, §3, §4, §5
Assay [5] concerns Mycobacterium smegmatis (MC^2155). The procedure:
as §1, §2, §3, §4, §5

A word on the MBC: it is the smallest concentration meeting the test's criterion for killing. The term MIC denotes the least concentration at which growth counts as inhibited. `CC(C)C[C@H](NC(=O)[C@H](CS)NC(=O)[C@@H]1CCCN1C(=O)[C@H](CCCCN)NC(=O)[C@H](CCCNC(=N)N)NC(=O)[C@@H]1CCCN1C(=O)[C@H](Cc1ccccc1)NC(=O)[C@H](CO)NC(=O)[C@H](CCCCN)NC(=O)[C@@H](NC(=O)[C@H](Cc1c[nH]c2ccccc12)NC(=O)[C@H](CS)NC(=O)CNC(=O)[C@H](CO)NC(=O)[C@H](CC(C)C)NC(=O)[C@@H](N)CO)[C@@H](C)O)C(=O)N[C@@H](CCCNC(=N)N)C(=O)N[C@@H](CC(N)=O)C(=O)N[C@@H](CCCNC(=N)N)C(=O)O` [HP3, SLSGCWTKSFPRKPCLRNR] (H-SLSGCWTKSFPRKPCLRNR-OH; N-terminus and C-terminus assumed): the MBC in assay [1] (ATCC 10148), in assay [2] (ATCC 6538), in assay [3] and in assay [4] (ATCC 9723) was greater than 256 µg/mL each time. The MIC in assay [1] (ATCC 10148), in assay [2] (ATCC 6538), in assay [3] and in assay [4] (ATCC 9723) was greater than 256 µg/mL each time. Also, the “inhibitory or bacteriostatic activity” value in assay [1] (P. aeruginosa), in assay [2] (S. aureus), in assay [3] and in assay [4] (E. coli) was “no effect” each time.

Turning to `CC[C@H](C)[C@H](NC(=O)[C@H](CCCCN)NC(=O)[C@H](CS)NC(=O)[C@H](C)NC(=O)[C@@H](NC(=O)[C@H](Cc1ccccc1)NC(=O)CNC(=O)[C@H](CC(C)C)NC(=O)CNC(=O)[C@@H](NC(=O)[C@H](CCCCN)NC(=O)CNC(=O)[C@H](CC(C)C)NC(=O)[C@H](CC(N)=O)NC(=O)[C@H](CCCCN)NC(=O)[C@H](CC(C)C)NC(=O)[C@@H](NC(=O)[C@H](CO)NC(=O)[C@H](CC(C)C)NC(=O)[C@H](CCSC)NC(=O)[C@@H](N)CO)C(C)C)C(C)C)C(C)C)C(=O)N[C@@H](CC(N)=O)C(=O)N[C@@H](CCCCN)C(=O)N[C@@H](CCC(N)=O)C(=O)N[C@@H](CS)C(=O)O` [HP4] (H-SMLSVLKNLGKVGLGFVACKINKQC-OH; N-terminus and C-terminus assumed), the MBC in assay [1] (ATCC 10148) and in assay [3] was greater than 256 µg/mL in each case. Also, the MIC in assay [1] (ATCC 10148) is greater than 256 µg/mL; in assay [2] (ATCC 6538), 97 µM; in assay [2] (S. aureus, listed as H4) it was 256 µg/mL; in assay [3], greater than 256 µg/mL; in assay [4] (ATCC 9723), 48 µM; in assay [4] (E. coli, listed as H4) it was 128 µg/mL. Also, the “inhibitory or bacteriostatic activity” value in assay [1] (P. aeruginosa) and in assay [3] was “no effect” in each case.

Regarding `CC[C@H](C)[C@H](NC(=O)[C@H](CC(C)C)NC(=O)[C@H](CCCCN)NC(=O)[C@H](CCCCN)NC(=O)[C@H](CS)NC(=O)[C@H](CCCNC(=N)N)NC(=O)[C@H](CCC(=O)O)NC(=O)[C@@H](NC(=O)[C@@H]1CCCN1C(=O)[C@@H](NC(=O)[C@H](CCC(=O)O)NC(=O)[C@H](CO)NC(=O)[C@H](CS)NC(=O)[C@H](CCC(=O)O)NC(=O)[C@H](CCC(=O)O)NC(=O)[C@H](CCCCN)NC(=O)[C@@H](NC(=O)[C@H](CC(C)C)NC(=O)[C@H](CCC(=O)O)NC(=O)[C@H](CCC(=O)O)NC(=O)[C@H](CC(C)C)NC(=O)[C@H](C)NC(=O)[C@H](CCCNC(=N)N)NC(=O)[C@H](CC(C)C)NC(=O)[C@H](CC(N)=O)NC(=O)[C@H](CO)NC(=O)[C@@H]1CCCN1C(=O)[C@@H](N)CC(N)=O)C(C)C)[C@@H](C)CC)C(C)C)C(=O)N[C@@H](Cc1ccc(O)cc1)C(=O)NCC(=O)N[C@@H](Cc1ccc(O)cc1)C(=O)N[C@@H](CCCNC(=N)N)C(=O)N[C@@H](CCCCN)C(=O)O` [HP5] (H-NPSNLRALEELVKEECSEIPVERCKKLIYGYRK-OH; N-terminus and C-terminus assumed), the “bacteriostatic and bacteriocidal activity” value in assay [5] (M. smegmatis) is “weak bacteriostatic and bacteriocidal activity”. Further, the MBC in assay [1] (ATCC 10148), in assay [2] (ATCC 6538), in assay [3] and in assay [4] (ATCC 9723) was greater than 256 µg/mL in each case. The MIC in assay [1] (ATCC 10148), in assay [2] (ATCC 6538), in assay [3] and in assay [4] (ATCC 9723) was greater than 256 µg/mL in each case. Besides, the “inhibitory or bacteriostatic activity” value in assay [1] (P. aeruginosa), in assay [2] (S. aureus), in assay [3] and in assay [4] (E. coli) was “no effect” throughout.

Take `CC[C@H](C)[C@H](NC(=O)[C@H](CCCCN)NC(=O)[C@H](CCC(=O)O)NC(=O)[C@H](CCCCN)NC(=O)[C@H](CO)NC(=O)[C@H](CCCCN)NC(=O)[C@H](CCCNC(=N)N)NC(=O)[C@H](Cc1ccccc1)NC(=O)[C@H](Cc1ccccc1)NC(=O)[C@H](CC(=O)O)NC(=O)CNC(=O)[C@H](CC(C)C)NC(=O)[C@@H](N)CC(C)C)C(=O)NCC(=O)N[C@@H](CCCCN)C(=O)N[C@@H](CCC(=O)O)C(=O)N[C@@H](Cc1ccccc1)C(=O)N[C@@H](CCCCN)C(=O)N[C@@H](CCCNC(=N)N)C(=O)N[C@H](C(=O)N[C@H](C(=O)N[C@@H](CCC(N)=O)C(=O)N[C@@H](CCCNC(=N)N)C(=O)N[C@H](C(=O)N[C@@H](CCCCN)C(=O)N[C@@H](CC(=O)O)C(=O)N[C@@H](Cc1ccccc1)C(=O)N[C@@H](CC(C)C)C(=O)N[C@@H](CCCNC(=N)N)C(=O)N[C@@H](CC(N)=O)C(=O)N[C@@H](CC(C)C)C(=O)N[C@H](C(=O)N1CCC[C@H]1C(=O)N[C@@H](CCCNC(=N)N)C(=O)N[C@H](C(=O)N[C@@H](CCC(=O)O)C(=O)N[C@@H](CO)C(=O)O)[C@@H](C)O)C(C)C)[C@@H](C)CC)C(C)C)[C@@H](C)CC` [LL37 + ve_AcOH, reference compound]: in assay [1] (P. aeruginosa), the MBC was greater than 256 µg/mL and the MIC was greater than 256 µg/mL.

As for `CC[C@H](C)[C@H](NC(=O)[C@H](Cc1ccccc1)NC(=O)[C@@H]1CCCN1C(=O)[C@H](CC(C)C)NC(=O)[C@@H](N)Cc1ccccc1)C(=O)N[C@@H](C)C(=O)N[C@@H](CCCNC(=N)N)C(=O)N[C@@H](CC(C)C)C(=O)N[C@@H](C)C(=O)N[C@@H](C)C(=O)N[C@@H](CCCCN)C(=O)N[C@H](C(=O)N[C@@H](Cc1ccccc1)C(=O)N1CCC[C@H]1C(=O)N[C@@H](CO)C(=O)N[C@H](C(=O)N[C@H](C(=O)N[C@H]1CSSC[C@@H](C(=O)O)NC(=O)[C@H](CCCCN)NC(=O)[C@H](CCCCN)NC(=O)[C@H]([C@@H](C)O)NC(=O)[C@H](C(C)C)NC(=O)[C@H](CO)NC1=O)[C@@H](C)CC)[C@@H](C)CC)C(C)C` [Peptide R4] (H-FLPFIARLAAKVFPSIICSVTKKC-OH; disulfide 18-24; N-terminus and C-terminus assumed), the MBC in assay [5] (Mycobacterium (MC^2155)) is 4 µg/mL (≈ 1.51 µM); in assay [1] (ATCC 10148), greater than 256 µg/mL; in assay [2] (ATCC 6538) it was 4 µg/mL (≈ 1.51 µM); in assay [4] (ATCC 9723) it was 16 µg/mL (≈ 6.03 µM). The MIC was 4 µg/mL (≈ 1.51 µM) in assay [5] (Mycobacterium (MC^2155)), greater than 256 µg/mL in assay [1] (ATCC 10148), 4 µg/mL in assay [2] (ATCC 6538) and 16 µg/mL in assay [4] (ATCC 9723).
